Measurements reported in patent publication US20260167641A1, “CRYSTAL FORM OF IMIDAZOPYRAZINE DERIVATIVE, PREPARATION METHOD THEREFOR AND USE THEREOF” (TRANSTHERA SCIENCES (NANJING), INC., priority 2022, published 2026).
Values after ≈ are worked out from the molar mass of the structure shown.

How the values were obtained:
Format in all cases: physicochemical
Hygroscopicity test = conditions: 25° C.±1° C.
Procedure: The experimental procedure was conducted in accordance with the guidelines for the hygroscopicity test of drugs in Chinese Pharmacopeia (2020 Edition). • 1. A dry glass weighing bottle with a stopper (outer diameter: 50 mm, height: 15 mm) was taken and placed in a thermostatic drier at 25° C.±1° C. (with a saturated ammonium chloride solution at the bottom) on the day before the test. After 24 h. the bottle was taken out, and its weight (m1) was precisely weighed. • 2. […] The total weight (m2) was precisely weighed. • 3. The weighing bottle was left open, and both the bottle and its bottle cap were placed under the constant temperature and humidity conditions described above for 24 h. • 4. The bottle was well sealed with its bottle cap, and the total weight (m3) was precisely weighed.
[formula] • 5. Hygroscopicity characteristics and hygroscopic weight gains are defined as follows. • deliquescent: sufficient water is absorbed to form a liquid; • extremely hygroscopic: the hygroscopic weight gain is not less than 15%; • hygroscopic: the hygroscopic weight gain is less than 15% but not less than 2%; • slightly hygroscopic: the hygroscopic weight gain is less than 2% but not less than 0.2%; • non-hygroscopic or almost non-hygroscopic: the hygroscopic weight gain is less than 0.2%.

[1] = Solubility test in pH 4.5 acetate buffer solution
Procedure: Appropriate amounts of crystal forms I, II, III, and the compound of formula (I) were weighed and placed into 15 mL centrifuge tubes separately. A pH 4.5 acetate buffer was added to each tube to prepare saturated solutions. The tubes were sealed and placed in a water bath thermostatic oscillator to shake at 37° C. and a rotation speed of 200 rpm for 24 h. After centrifugation, the supernatants were collected and diluted to the corresponding multiples. The concentrations were measured. The detection was conducted according to the 2020 edition of the Chinese Pharmacopoeia.

[2] = Stability evaluation under influencing factors
Procedure: Appropriate amounts of crystal forms I, II. III, and the compound of formula (I) were taken and exposed to conditions of 60° C., RH (relative humidity) 92.5%, RH (relative humidity) 75%, and light, respectively. The samples were collected on day 30, and the purity of the samples and changes in XRPD were examined according to the 2020 edition of the Chinese Pharmacopoeia.

- 24 h percentage weight gain (Hygroscopicity test; saturated ammonium chloride solution): 0.34%
- Solubility compared to the amorphous form [1]: higher solubility
- Solubility ([1]; saturated solution, 37° C., 200 rpm, 24 h): 375 µg/mL (≈ 591 µM)
- Purity % ([2]; 0 day): 99.3%
- Crystal form identification (XRPD) ([2]; 60° C., 30 days): Consistent with day 0
- Purity % ([2]; 60° C., 30 days): 99.3%
- Crystal form identification (XRPD) ([2]; Light exposure, 30 days): Consistent with day 0
- Purity % ([2]; Light exposure, 30 days): 98.8%
- Crystal form identification (XRPD) ([2]; RH 75%, 30 days): Consistent with day 0
- Purity % ([2]; RH 75%, 30 days): 99.3%
- Crystal form identification (XRPD) ([2]; RH 92.5%, 30 days): Consistent with day 0
- Purity % ([2]; RH 92.5%, 30 days): 99.3%
- Change of crystal form (XRPD pattern) ([2]; all influencing factor conditions, 30 days): no changes in the crystal forms occurred
- Stability compared to the amorphous form ([2]; influencing factors, 30 days): higher stability
- Purity decrease ([2]; light exposure, 30 days vs day 0): 0.5%
Structure (SMILES): Nc1nccn2c(C34CCC(NC(=O)CN5CCOCC5)(CC3)C4)nc(-c3ccc(C(=O)Nc4cc(C(F)(F)F)ccn4)cc3)c12 (single isomer, unassigned) [Crystal form II, 4-(8-amino-3-(4-(2-morpholinoacetamido)bicyclo[2.2.1]heptan-1-yl)imidazo[1,5-a]pyrazin-1-yl)-N-(4-(trifluoromethyl)pyridin-2-yl)benzamide]
- Hygroscopicity characteristic (Hygroscopicity test; 24 h): slightly hygroscopic (the hygroscopic weight gain is less than 2% but not less than 0.2%)
